The values below come from patent US20120316183A1, “NOVEL SOLVATES OF METHYLCARBAMATE” (Bayer Intellecutal Property GmbH, priority 2009, published 2012).

This data set can be described thus: processability of the solid form (grinding / micronization, flowability, sievability). In kind it is physicochemical.

In the case of `COC(=O)Nc1c(N)nc(-c2nn(Cc3ccccc3F)c3ncccc23)nc1N` [semi-ethanol solvate of the formula (Ia), semi-ethanol solvate of methyl {4,6-diamino-2-[1-(2-fluorobenzyl)-1H-Pyrazolo[3,4-b]pyridin-3-yl]pyrimidin-5-yl}carbamate], the flowability and sievability entry (compared to modification I of the compound of the formula (I)) is “better flowability and sievability”. Moreover, the “fineness and tail of coarse material in the micronisate” value (compared to modification I, micronisate) is “higher fine-ness and a reduced tail of coarse material”.

Take `COC(=O)Nc1c(N)nc(-c2nn(Cc3ccccc3F)c3ncccc23)nc1N` [modification I, methyl {4,6-diamino-2-[1-(2-fluorobenzyl)-1H-pyrazolo[3,4-b]pyridin-3-yl]pyrimidin-5-yl}carbamate]: under “micronization step”, the grindability result is recorded as “difficult to grind”.
